{"source": "paper PMC7194099", "about": "“Transient expression and purification of β-caryophyllene synthase in Nicotiana benthamiana to produce β-caryophyllene in vitro” (PeerJ, 2020)", "biological_target": "T1, AaCPS1 (β-caryophyllene synthase) (Artemisia annua, UniProt A0A059PYD5)", "T1 construct": "gene CPS; C-terminal 6xHis tag kept; transient expression in Nicotiana benthamiana (pEAQ-HT)", "T1 sequence (A0A059PYD5 1-550)": "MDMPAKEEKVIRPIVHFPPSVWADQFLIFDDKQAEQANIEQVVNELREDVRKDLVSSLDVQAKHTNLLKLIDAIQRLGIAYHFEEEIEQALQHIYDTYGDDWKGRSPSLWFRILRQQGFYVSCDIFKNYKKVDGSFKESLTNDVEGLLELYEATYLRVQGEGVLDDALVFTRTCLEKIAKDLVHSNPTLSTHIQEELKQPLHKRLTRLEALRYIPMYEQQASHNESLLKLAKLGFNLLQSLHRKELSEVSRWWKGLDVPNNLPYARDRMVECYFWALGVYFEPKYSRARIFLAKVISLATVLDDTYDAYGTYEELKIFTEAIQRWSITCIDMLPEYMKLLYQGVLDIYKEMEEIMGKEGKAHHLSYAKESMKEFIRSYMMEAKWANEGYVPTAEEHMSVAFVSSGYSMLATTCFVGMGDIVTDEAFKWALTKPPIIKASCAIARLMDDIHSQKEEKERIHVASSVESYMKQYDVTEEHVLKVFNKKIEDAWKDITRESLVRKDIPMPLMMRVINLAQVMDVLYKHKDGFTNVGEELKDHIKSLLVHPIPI", "experiment": "GC-MS of dodecane overlay", "type": "biochemical", "conditions": "20 µM FPP, 20 mM MgCl2, 20 mM Tris-HCl pH 7.0, 10% glycerol, 2 mM DTT, 30 °C, 4 h; products β-caryophyllene (main) and α-humulene", "data": [{"molecule": "CC(C)=CCC/C(C)=C/CC/C(C)=C/COP(=O)(O)OP(=O)(O)O", "note": "[FPP, farnesyl diphosphate]", "values": [{"measurement": "GC-MS of dodecane overlay", "value": "the purified AaCPS1 was incubated with the substrate FPP"}]}]}
